Measurements: patent US9932300B2, “N,N′-diarylurea compounds and N,N′-diarylthiourea compounds as inhibitors of translation initiation” (President and Fellows of Harvard College, priority 2009, dated 2018)

Test system: eIF2-GTP-Met-tRNAi ternary complex
Test: Ternary complex assay (dual luciferase, firefly/renilla ratio) in stable KLN-tTA/pBISA-DL(ATF-4) cells; HTS and hit confirmation
Assay type: cell-based, mouse
Set-up: Activity 10 uM / Activity 2.5 uM / Activity 5 uM: unit not given here
Details: confirmed hits of the screen (Table 5); for Activity 2.5 uM: compound at 2.5 uM; for Activity 10 uM: compound at 10 uM; for Activity 5 uM: compound at 5 uM

SMILES | Activity 2.5 uM | Activity 10 uM | Activity 5 uM
CO[C@H]1/C=C/O[C@@]2(C)Oc3c(C)c(O)c4c(O)c(c(/C=N/N5CCN(Cc6cccc(C(F)(F)F)c6)CC5)c(O)c4c3C2=O)NC(=O)/C(C)=C\C=C\[C@H](C)[C@H](O)[C@@H](C)[C@@H](O)[C@@H](C)[C@H](OC(C)=O)[C@@H]1C [Compound 173710] | 0.83 | 16.35 | 
Cc1ccc(-c2nc(C#N)c(C#N)nc2-c2ccc(C)cc2)cc1 [Compound 174794] |  | 33.869 | 24.857
Oc1ccc(-c2nnc(-c3ccc(O)cc3)nn2)cc1 [Compound 174877] | 3.04 | 3.29 | 
[CH3][Hg][O]C(C)=O [Compound 176145] | 3.81 |  | 
CS(=O)(=O)c1ccc(/C=C2\C=Cc3ccccc32)cc1 [Compound 176657] | 1.67 | 4.64 | 
FC(F)(F)c1cccc(-c2nc3nc(Cl)c(Cl)nc3[nH]2)c1 [Compound 177407] |  | 21.876 | 16.53
CCC[CH2][Sn]([CH2]CCC)([CH2]CCC)[n]1ccnc1 [Compound 179739] | 0.98 | 3.62 | 
CCCCC[CH2][Sn]([CH2]CCCCC)([CH2]CCCCC)[NH]S(=O)(=O)c1ccc(C)cc1 [Compound 179762] | 0.72 | 18.35 | 
Clc1nn2nnnc2c2ccccc12 [Compound 179944] | 0.54 | 6.1 | 
Cc1cc(C)nc(NC(=S)N/N=C/c2ccccn2)n1 [Compound 185066] |  | 20.339 | 44.91
N#Cc1nc2c3ccccc3c(N=NC(=N)N[N+](=O)[O-])c-2[nH]c1C#N [Compound 186256] |  | 3.71 | 3.212
N#Cc1nc2c3ccccc3c(N=NC(N)=S)c-2[nH]c1C#N [Compound 186257] |  | 59.966 | 49.982
CC(/C=N/O)=N\O.CC(/C=N/O)=N\O.[Pd] [Compound 186948] |  | 4.4425 | 4.507
COc1ccc(NC(=O)Nc2ccccc2Cl)c(Cl)c1 [Compound 191346] |  | 4.4055 | 3.018
O=C(/C=C/c1ccccc1)Nc1ccc(Cl)c(Cl)c1 [Compound 191395] |  | 7.0185 | 3.609
CC12CC3CC(C)(C1)CC(SCCN=C(N)CCl)(C3)C2.Cl [Compound 193484] | 1.24 | 22.72 | 
N#Cc1nc2c(nc1C#N)-c1ccccc1/C2=C1/C(=O)Cc2ccccc21 [Compound 193713] | 0.55 | 24.26 | 
CCC[CH2][Sn]1([CH2]CCC)[O]CC2(CCCCC2)C[O]1 [Compound 194646] | 8.08 | 6.24 | 
C=C1CC2(OC1=O)C(=O)N(C)c1ccccc12 (stereo not drawn) [Compound 194807] | 1.72 | 3.45 | 
COc1ccc(NC(=S)Nc2ccccc2S)cc1 [Compound 201570] | 2.16 | 3.02 | 
C/C(=N\N=C(/C)c1ccc(F)cc1)c1ccc(F)cc1 [Compound 202060] |  | 5.049 | 3.63
CCS(=O)(=O)/C=C/c1ccc2ccccc2n1 [Compound 202491] | 0.5 | 3.05 | 

SMILES | Activity 2.5 uM | Activity 10 uM | Activity 5 uM
CCCC[CH2][Sn]([CH2]CCCC)[CH2]CCCC.CCCC[CH2][Sn]([CH2]CCCC)[CH2]CCCC [Compound 202674] | 4.67 |  | 
CCC[CH2][Sn]([C]#[C][Sn]([CH2]CCC)([CH2]CCC)[CH2]CCC)([CH2]CCC)[CH2]CCC [Compound 203205] | 3.12 |  | 
C(=P(c1ccccc1)(c1ccccc1)c1ccccc1)[P+](c1ccccc1)(c1ccccc1)c1ccccc1.[Br-].[Br-].[Cu+] [Compound 203423] | 7.7 | 3.09 | 
O=C(Nc1ccc(Cl)c(Cl)c1)c1ccc(Cl)cc1 [Compound 204163] | 2.44 | 4.83 | 
Cc1cc(Cl)c(Cl)cc1NC(=O)c1ccc(Cl)cc1Cl [Compound 204246] | 1.92 | 3.49 | 
COc1ccccc1C(=O)N/N=C\c1ccc(Cl)cc1Cl [Compound 204386] |  | 6.0225 | 5.252
CN(C)c1ccc(N=Nc2cccc([N+](=O)[O-])c2)cc1 [Compound 204512] | 2.67 | 4.16 | 
Cc1ccc(N=Nc2ccc(N(C)C)cc2)cc1 [Compound 204514] | 3.6 | 4.66 | 
CN(C)c1ccc(N=Nc2cccc(Cl)c2)cc1 [Compound 204515] | 2.84 | 5.31 | 
O=C(Nc1ccc2ccccc2c1)c1ccccc1Cl [Compound 204548] | 2.82 | 3.99 | 
CSc1ccc(NC(=O)c2ccc(Cl)cc2Cl)cc1 [Compound 204668] |  | 4.923 | 5.386
O=C(COc1ccc(Cl)cc1)Nc1nccs1 [Compound 204716] | 2.2 | 3.01 | 
CCc1ccc(NC(=O)Nc2ccc(Cl)c(Cl)c2)cc1 [Compound 204750] | 3.53 | 24.26 | 
O=C(Nc1ccc(Cl)c(Cl)c1)OCC1CC2C=CC1C2 (stereo not drawn) [Compound 204751] | 2.91 | 4.76 | 
CCOC(=O)C1CCc2c(ccc3ccccc23)N1 (stereo not drawn) [Compound 204931] |  | 3.539 | 3.1
O=C(Nc1ccc2ccccc2c1)c1ccc(Cl)cc1 [Compound 205530] | 3.08 | 3.34 | 
O=C(Nc1ccc(Br)cc1)OCC1CC2C=CC1C2 (stereo not drawn) [Compound 205545] | 2.41 | 4.54 | 
O=C(Nc1ccccc1F)C(Br)C(Br)c1ccccc1 (stereo not drawn) [Compound 205548] | 2.94 | 4.01 | 
CSc1ccc(NC(=O)Nc2cccc(F)c2)cc1 [Compound 205787] | 1.79 | 4.39 | 
CSc1ccc(NC(=O)Nc2ccccc2F)cc1 [Compound 205789] | 3.99 | 7.26 | 
CO[C@H]1/C=C/O[C@@]2(C)Oc3c(C)c(O)c4c(O)c(c(/C=N/N5CC(C)(C)N(Cc6ccccc6)CC5(C)C)c(O)c4c3C2=O)NC(=O)/C(C)=C\C=C\[C@H](C)[C@H](O)[C@@H](C)[C@@H](O)[C@@H](C)[C@H](OC(C)=O)[C@@H]1C [Compound 208394] |  | 13.4 | 1.5
COc1ccc(N=Nc2cc(C)c(C)cc2O)cc1 [Compound 209832] |  | 4.7795 | 9.509

SMILES | Activity 2.5 uM | Activity 10 uM | Activity 5 uM
O=[N+]([O-])c1ccc(OCc2ccc(CBr)cc2)c(Cl)c1 [Compound 212379] | 2.28 | 4.4 | 
Cc1ccnc(NC(=O)Nc2cc(F)ccc2F)c1 [Compound 213710] |  | 5.091 | 4.183
O=C(Nc1ccc(F)cc1)OCC1CC2C=CC1C2 (stereo not drawn) [Compound 213848] |  | 3.5355 | 4.586
O=C(Nc1ccc(CCO)cc1)Nc1ccccc1F [Compound 214004] |  | 6.0655 | 5.299
O=C(Nc1ccc2ccccc2c1)c1cccc(F)c1 [Compound 214029] |  | 6.8665 | 5.245
O=C(Nc1ccc2ccccc2c1)c1ccc(F)cc1 [Compound 214041] |  | 8.374 | 6.705
CCCCCCOC(=O)Nc1cccc(O)c1 [Compound 222612] |  | 2.88 | 4.521
O=C(O)c1ccc(/C=N\Nc2ccccc2)cc1 [Compound 227290] |  | 6.8065 | 5.935
O=S(=O)(Cc1ccccc1)CC(Br)CBr (stereo not drawn) [Compound 229344] | 1.28 | 4.4 | 
O=C1c2ccccc2C(=O)c2c1ccc1c2CCCC1 [Compound 230359] |  | 8.3955 | 4.465
CN(C)c1ccc(/C=N/Nc2ccccc2)cc1 [Compound 230415] |  | 3.3005 | 2.468
[C-]#[N+]C1CCCCC1.[C-]#[N+]C1CCCCC1.[C-]#[N+]C1CCCCC1.[C-]#[N+]C1CCCCC1.[C-]#[N+]C1CCCCC1.[C-]#[N+]C1CCCCC1.[Mn] [Compound 231980] |  | 3.8 | 4.1
COc1c(O)c2c(=O)cc3c4c5c(cc(=O)c6c(O)c(OC)c(CC(C)O)c(c(c1CC(C)O)c24)c65)OCO3 (stereo not drawn) [Compound 234486] | 10 |  | 
[Br][Ni][Br].c1ccc(CN2CCN(Cc3ccccc3)CCN(Cc3ccccc3)CCN(Cc3ccccc3)CC2)cc1 [Compound 236237] | 1.78 | 57.44 | 
CN(C)c1ccc(C(=N)Cc2ccc3ccccc3n2)cc1 [Compound 240575] |  | 7.0215 | 6.23
CN(C)c1ccc(C(O)Cc2ccc3ccccc3n2)cc1 (stereo not drawn) [Compound 240576] |  | 6.2885 | 5.47
CN(C)c1ccc(C(=O)Cc2ccc3ccccc3n2)cc1 [Compound 240577] | 2.68 | 4.63 | 
CN(C)c1ccc(-c2nc3ccccn3c2N)cc1 [Compound 240724] |  | 4.257 | 3.594
CN(C)c1ccc(N=Nc2ccc(C(=O)Cl)cc2)cc1 [Compound 240870] |  | 7.2395 | 6.352
C=C1C(=O)OC2CCCCC3OC3C12 (stereo not drawn) [Compound 258618] | 0.85 | 3.2 | 
[O-][n+]1c2ccccc2nn1-c1ccc(N(CCCl)CCCl)cc1 [Compound 260514] | 1.94 | 3.87 | 
